Assay results from PMC7370187, “Screening of an Epigenetic Drug Library Identifies 4-((hydroxyamino)carbonyl)-N-(2-hydroxyethyl)-N-Phenyl-Benzeneacetamide that Reduces Melanin Synthesis by Inhibiting Tyrosinase Activity Independently of Epigenetic Mechanisms” (International Journal of Molecular Sciences, 2020).
“Also recorded” adds a separate entry of the source.

What was measured:
[1] = tested on: cellular melanin production; set-up: method as in earlier work; conditions: ref [55] Baek et al.; cited from earlier work
mushroom TYR = tested on: mushroom TYR; set-up: method as in earlier work; conditions: ref [55] Baek et al.; read-out: IC50, catalytic activity of mushroom TYR in vitro; cited from earlier work
[2] = tested on: B16-F10 murine melanoma cells; assay: Screening assay for overall melanin synthesis (OD 400 nm) in α-MSH-stimulated cells; format: cell-based; conditions: 100 nM α-MSH, 72 h; for relative melanin synthesis (OD 400 nm): drug 1.0 μM
Procedure: For the screening assay, B16-F10 cells were plated in 96-well plates (3 × 10^3 cells per well) and cultured for 24 h. The cells were then treated with a test drug at 1.0 μM for 60 min, and subsequently stimulated with 0.1 μM α-MSH for 72 h. Overall melanin synthesis was estimated by measuring the absorbance of each well (cells plus medium, without cell lysis) at 400 nm using a Spectrostar Nano microplate reader (BMG LABTECH GmbH, Ortenberg, Germany).

human TYR [3] = molecular target: T1, human TYR (Homo sapiens, UniProt P14679); assay: In vitro TYR catalytic activity assay, lysate of HEK293-TYR cells; format: biochemical; conditions: each drug at 1.0 μM, library screening
T1 construct: expressed in transfected cells; Triton X-100 lysate supernatant
T1 sequence (P14679 19-529): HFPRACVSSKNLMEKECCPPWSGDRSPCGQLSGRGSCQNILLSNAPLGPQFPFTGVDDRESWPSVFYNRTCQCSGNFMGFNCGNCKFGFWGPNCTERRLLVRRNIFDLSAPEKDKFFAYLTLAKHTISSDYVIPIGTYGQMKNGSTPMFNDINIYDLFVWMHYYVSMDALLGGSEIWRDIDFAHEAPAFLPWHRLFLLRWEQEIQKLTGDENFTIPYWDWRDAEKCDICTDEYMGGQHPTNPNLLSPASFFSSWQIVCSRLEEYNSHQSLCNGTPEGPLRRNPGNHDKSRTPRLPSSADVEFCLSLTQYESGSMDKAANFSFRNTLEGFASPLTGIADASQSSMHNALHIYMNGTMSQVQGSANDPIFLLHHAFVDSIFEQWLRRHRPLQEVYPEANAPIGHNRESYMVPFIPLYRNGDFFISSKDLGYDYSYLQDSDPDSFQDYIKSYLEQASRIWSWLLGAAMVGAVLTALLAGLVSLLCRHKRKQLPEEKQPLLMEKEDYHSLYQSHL
Procedure: (§1) To examine the direct effect of a drug on the catalytic activity of TYR, in vitro experiments were undertaken. Lysate of B16F10 cells stimulated with α-MSH for 24 h was used as a murine TYR preparation. Human TYR preparation was the lysate of human embryonic kidney 293 cells constitutively expressing human TYR (HEK293-TYR). […] The TYR activity assay mixture (200 μL) consisted of 100 mM sodium phosphate buffer (pH 6.8), TYR preparation (40 μg protein), a drug at various concentrations, 1.0 mM L-tyrosine, and 42 μΜ L-DOPA. For enzyme kinetic study, the concentrations of L-tyrosine plus L-DOPA were varied while their relative ratio was kept the same as the standard assay condition. […] The reactions were also performed in the absence of a TYR preparation to correct for the effects of non-enzymatic reactions. Enzyme activity was calculated as follows: activity (% control) = (C−D)/(A−B) × 100, where A and B are the absorbance changes of the control group with and without enzyme, respectively, while C and D are the absorbance changes of the test group with and without enzyme, respectively.

B16-F10 cells = assay: Cell viability assay (MTT); format: cell-based, murine; conditions: 48 h; for relative viability: drug 1.0 μM
Procedure: Cell viability was evaluated using 3-(4,5-dimethylthiazol-2-yl)-2,5-diphenyltetrazolium bromide (MTT). After treatment of B16-F10 cells with each drug for 48 h, cells were washed with phosphate-buffered saline (PBS) and incubated for 2 h in the culture medium containing 1 mg∙mL^−1 MTT (Amresco, Solon, OH, USA). The medium was discarded by aspiration, the formazan dye deposited inside the cells was extracted with isopropanol, and absorbance was measured at 595 nm using a Spectrostar Nano microplate reader.

[4] = Copper chelating activity assay (pyrocatechol violet); format: physicochemical; conditions: 200 μM test compound, 200 μM copper ions, 200 μM pyrocatechol violet, absorbance 632 nm
Procedure: Copper chelating activity was determined by using pyrocatechol violet (Sigma-Aldrich). […] The reaction mixture containing a potential chelator at varied concentrations, 200 μM CuSO4, and 200 μM pyrocatechol violet was incubated at 25 °C for 20 min, and its absorption spectra were recorded using a Shimadzu UV-1650PC spectrophotometer (Shimadzu Corporation, Kyoto, Japan). Copper chelating activity was evaluated by the change in the absorbance of pyrocatechol violet at 632 nm.

human TYR [5] = molecular target: T1, human TYR; set-up: method as in PMID 31382682, PMID 23476698, PMID 26914711; conditions: HEK293-TYR; ref [43],[45],[47]; cited from earlier work
murine TYR = molecular target: T2, murine TYR (Mus musculus, UniProt P11344); assay: In vitro TYR catalytic activity assay, lysate of α-MSH-stimulated B16F10 cells; format: biochemical; conditions: murine TYR, varying substrate concentrations
T2 construct: One is the protein extract of B16F10 cells stimulated by α-MSH and thus expresses a high amount of TYR; endogenous in cells; host or cells: B16F10 murine melanoma cells stimulated with α-MSH for 24 h; Triton X-100 lysate supernatant
T2 sequence (P11344 19-533): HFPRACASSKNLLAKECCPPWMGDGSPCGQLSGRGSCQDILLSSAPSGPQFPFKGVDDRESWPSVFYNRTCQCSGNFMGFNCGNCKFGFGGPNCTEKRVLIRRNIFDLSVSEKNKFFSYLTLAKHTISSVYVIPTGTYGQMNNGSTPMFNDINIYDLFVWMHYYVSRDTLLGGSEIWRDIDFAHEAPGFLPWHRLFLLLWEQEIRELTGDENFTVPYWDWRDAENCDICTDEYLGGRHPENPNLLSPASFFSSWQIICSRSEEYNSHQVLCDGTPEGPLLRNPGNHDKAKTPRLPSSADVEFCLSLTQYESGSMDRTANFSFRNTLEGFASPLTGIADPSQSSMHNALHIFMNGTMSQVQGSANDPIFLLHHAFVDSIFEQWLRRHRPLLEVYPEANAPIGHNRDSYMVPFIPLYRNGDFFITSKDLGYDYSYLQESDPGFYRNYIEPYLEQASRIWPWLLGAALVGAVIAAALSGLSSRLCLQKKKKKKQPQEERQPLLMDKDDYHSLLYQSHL
Procedure: as §1

TYR = assay: In vitro TYR catalytic activity, murine and human TYR given together (abstract); format: biochemical; conditions: range over human and murine TYR preparations
Procedure: as §1

O=C(NO)c1ccc(NC(=O)C23CC4CC(CC(C4)C2)C3)cc1 [1a, 4-(Adamantanecarboxamido)-N-hydroxybenzamide]
IC50 [1]: 3.78 µM
IC50 (mushroom TYR): 12 µM

O=C(NO)c1ccc(C(=O)NC23CC4CC(CC(C4)C2)C3)cc1 [1b, N1-Adamantyl-N4-hydroxyterephthal amide]
IC50 [1]: 7.46 µM
IC50 (mushroom TYR): 8.99 µM

COc1ccc(Cn2ccc3ccc(C(=O)NO)cc32)cc1 [A5, N-Hydroxy-1-((4-methoxyphenyl)methyl)-1H-indole-6-carboxamide]
relative melanin synthesis (OD 400 nm) [2]: showed no melanin inhibitory action
human TYR inhibitory effect (human TYR [3]): potent TYR inhibitory effects; also recorded: showed excellent inhibitory action

COc1cc2c(NC3CCN(C(C)C)CC3)nc(C3CCCCC3)nc2cc1OCCCN1CCCC1 [C3, UNC0638]
relative viability (B16-F10 cells): showed strong cytotoxicity

CCN(CC)Cc1ccc2cc(COC(=O)Nc3ccc(C(=O)NO)cc3)ccc2c1.Cl.O [C10, (6-((diethylamino)methyl)naphthalen-2-yl)methyl (4-(hydroxycarbamoyl)phenyl)carbamate hydrochloride hydrate]
human TYR inhibitory effect (human TYR [3]): potent TYR inhibitory effects; also recorded: showed excellent inhibitory action

O=C(C=Cc1cccc(C(=O)NO)c1)NO [H4, N-hydroxy-3-(3-(hydroxyamino)-3-oxo-1-propen-1-yl)-benzamide]
relative melanin synthesis (OD 400 nm) [2]: markedly inhibited cellular melanin synthesis
melanin synthesis (OD 400) ([2]; drug at varied concentrations): attenuated by both drugs in a dose-dependent manner
relative viability (B16-F10 cells): without reducing cell viability
cytotoxicity (relative viability) (B16-F10 cells; drug at various concentrations): showed toxicity at 3 μM and higher concentrations
human TYR inhibitory effect (human TYR [3]): potent TYR inhibitory effects

Cn1c(C=CC(=O)NO)ccc1C=CC(=O)c1cccc(F)c1 [M3, 3-(5-(3-(3-Fluorophenyl)-3-oxopropen-1-yl)-1-methyl-1H-pyrrol-2-yl)-N-hydroxy-2-propenamide]
relative melanin synthesis (OD 400 nm) [2]: showed no melanin inhibitory action
human TYR inhibitory effect (human TYR [3]): potent TYR inhibitory effects; also recorded: showed excellent inhibitory action

O=c1cc(CO)occ1O [kojic acid]
copper ions chelated [4]: 36%
IC50 [1]: 2000 µM

O=c1cc(-c2ccc(O)c(O)c2)oc2cc(OS(=O)(=O)O)cc(O)c12 [luteolin 7-sulfate]
IC50 (human TYR [5]): 8.2 µM

O=C(O)/C=C/c1ccc(O)cc1 [p-coumaric acid]
IC50 (human TYR [5]): 4 µM

OC[C@H]1O[C@@H](Oc2ccc(O)cc2)[C@H](O)[C@@H](O)[C@@H]1O [β-arbutin, 4-hydroxyphenyl-β-D-glucopyranoside]
inhibition type (Lineweaver–Burk plots) (murine TYR): competitive inhibition
copper ions chelated [4]: did not show copper chelating activity
IC50 (TYR): 500 to 700 µM
